According to patent US7705188B2 (Arizona Board of Regents, a body corporate of the State of …, priority 2002, dated 2010):
≈ marks a conversion by molar mass, not a printed value. Where two headings read alike, the source gives them in different places.

How the values were obtained:
[1] = system: Candida albicans; test: Antimicrobial broth microdilution, MIC; format: cell-based; settings: read-out: Minimum inhibitory concentration
Description: (§1) Stilbene production has been correlated with the resistance of grape leaves to fungal infection.

[2] = system: Cryptococcus neoformans; test: Antimicrobial broth microdilution, MIC; format: cell-based; settings: read-out: Minimum inhibitory concentration
Description: as §1

[3] = system: Enterobacter cloacae; test: Antimicrobial broth microdilution, MIC; format: cell-based; settings: read-out: Minimum inhibitory concentration
Description: as §1

[4] = system: Enterococcus faecalis; test: Antimicrobial broth microdilution, MIC; format: cell-based; settings: for MIC: read-out: Minimum inhibitory concentration
Description: as §1

[5] = system: Escherichla coli; test: Antimicrobial broth microdilution, MIC; format: cell-based; settings: read-out: Minimum inhibitory concentration
Description: as §1

[6] = system: Micrococcus luteus; test: Antimicrobial broth microdilution, MIC; format: cell-based; settings: read-out: Minimum inhibitory concentration
Description: as §1

[7] = system: Neisseria gonorrhoeae; test: Antimicrobial broth microdilution, MIC; format: cell-based
Description: as §1

[8] = system: Staphylococcus aureus; test: Antimicrobial broth microdilution, MIC; format: cell-based; settings: read-out: Minimum inhibitory concentration
Description: as §1

[9] = system: Stenotrophomonas maltophilia; test: Antimicrobial broth microdilution, MIC; format: cell-based; settings: read-out: Minimum inhibitory concentration
Description: as §1

[10] = system: Streptococcus pneumoniae; test: Antimicrobial broth microdilution, MIC; format: cell-based; settings: read-out: Minimum inhibitory concentration
Description: as §1

[11] = system: human leukemia HL-60 cell line; settings: cited from earlier work
[12] = system: BXPC-3; test: Cytotoxicity, pancreas-a BXPC-3; format: cell-based, human
[13] = system: SF-268; test: Cytotoxicity, CNS SF-268; format: cell-based, human; settings: for GI50: Homo sapiens
[14] = system: NCI-H460; test: Cytotoxicity, lung-NSC NCI-H460; format: cell-based, human; settings: for GI50: Homo sapiens
[15] = system: KM201.2; test: Cytotoxicity, colon KM201.2; format: cell-based, human; settings: for GI50: Homo sapiens
[16] = system: DU-145; test: Cytotoxicity, prostate DU-145; format: cell-based, human
[17] = system: tubulin; test: Inhibition of tubulin polymerization; format: biochemical; settings: for IC50: tubulin 10 μM, extent of assembly after 20 min at 30° C., read-out: Inhibition of tubulin Polymerization IC50 (μM) ± SD; for Inhibition of tubulin assembly, in words: direct comparison with 2a and 2c
Protocol: (§2) Extent of assembly after 20 min at 30° C. was the parameter measured. The colchicine binding assay was performed as earlier reported.^27 The tubulin concentration was 1.0 μM, the [3H] colchicine concentration was 5.0 μM, and the potential inhibitor concentrations were as indicated. Binding of colchicine was measured following a 10 min incubation at 37° C.

[18] = system: tubulin; test: Inhibition of [3H]colchicine binding to tubulin; settings: for Inhibition of colchicine binding % Inhibition, 2 μM inhibitor / Inhibition of colchicine binding % Inhibition, 5 μM inhibitor: tubulin 1.0 μM, [3H]colchicine 5.0 μM, 10 min at 37° C.
Protocol: as §2

[19] = system: murine CaNT adenocarcinoma; settings: six hours after single i.p. injection, 100 mg/kg; cited from earlier work
[20] = system: MCF-7; test: Cytotoxicity, breast MCF-7; format: cell-based, human; settings: for GI50: Homo sapiens, MCF7
[21] = system: P-388 and human tumor cell lines; test: Cytotoxicity, summary over P-388 and human tumor cell lines; format: cell-based
[22] = system: bacteria and fungi; test: Antimicrobial evaluation, summary; format: cell-based
Description: as §1

[23] = Neisseria gonorrhoeae; read-out: Minimum inhibitory concentration
[24] = NCI-H460, read-out: Lung-NSC NCI-H460 GI50, NCI-H460

SMILES	MIC [1]	MIC [2]	MIC [3]	MIC ([4]; first line (r12))	MIC ([4]; second line (r15))	MIC ([5]; Escherichla coli)	MIC [6]	MIC [7, 23]	MIC [8]	MIC [9]	MIC [10]	Pancreas-a BXPC-3 GI50 [12]	CNS SF-268 GI50 [13]	Prostate DU-145 GI50 [16]	IC50 [17]	Inhibition of colchicine binding % Inhibition, 2 μM inhibitor [18]	Inhibition of colchicine binding, in words [18]	Inhibition of colchicine binding % Inhibition, 5 μM inhibitor [18]	Cytotoxicity against cancer cell lines, comparison in words [21]	further results
Oc1ccc(/C=C/c2cc(O)cc(O)c2)cc1 [Compound 1, 3,4′,5-trihydroxy-trans-stilbene, reference compound]	> 64 µg/mL	> 64 µg/mL	> 64 µg/mL	> 64 µg/mL	> 64 µg/mL	> 64 µg/mL	> 64 µg/mL	16 to 32 µg/mL (≈ 70.1 to 140 µM)	> 64 µg/mL	> 64 µg/mL	> 64 µg/mL									Activity against Neisseria gonorrhoeae, in words ([7]; broth microdilution assays): demonstrated; Apoptosis and Bcl-2 expression [11]: induce apoptosis and decrease expression of Bcl-2
COc1ccc(/C=C\c2cc(OC)c(OC)c(OC)c2)cc1O [Compound 2a, combretastatin A-4, reference compound]												0.39 µg/mL	>0.01 µg/mL	0.0008 µg/mL	2 ± 0.2 µM	91%				Lung-NSC NCI-H460 GI50 [14]: 0.0006 µg/mL; Colon KM201.2 GI50 ([15]; KM201.2): 0.34 µg/mL
COc1ccc(/C=C\c2cc(OC)c(OC)c(OC)c2)cc1OP(=O)([O-])[O-].[Na+].[Na+] [Compound 2b, combretastatin A-4 sodium phosphate prodrug]																				Tumor vascular function shutdown [19]: rapid, irreversible and extensive
COc1ccc(C(=O)c2cc(OC)c(OC)c(OC)c2)cc1O [Compound 2c, phenstatin, reference compound]															1.1 ± 0.1 µM	73 ± 1%	less potent than combretastatin A-4 (2a)	85 ± 2%		GI50 ([13]; SF-268, read-out: CNS SF-268 GI50, SF-268): 0.052 µg/mL (≈ 0.163 µM); GI50 [14, 24]: 0.0057 µg/mL (≈ 0.0179 µM); GI50 ([15]; read-out: Colon KM201.2 GI50, KM201.2): 0.04 µg/mL (≈ 0.126 µM)
COc1ccc(C=Cc2cc(OC)cc(OC)c2)cc1 [Compound 4a, 3,4′,5-trimethoxystilbene]	> 64 µg/mL	> 64 µg/mL	> 64 µg/mL				> 64 µg/mL		> 64 µg/mL	> 64 µg/mL	> 64 µg/mL	0.0034 µg/mL	0.0044 µg/mL	0.0054 µg/mL	1.8 ± 0.3 µM	88 ± 1%	essentially equivalent to 2a	95 ± 1%		Lung-NSC NCI-H460 GI50 [14]: 0.0028 µg/mL; Inhibition of tubulin assembly, in words [17]: more inhibitory than 2a; MIC [4]: > 64 µg/mL; Minimum inhibitory concentration ([4]; second line (r15)): * (no inhibition at 64 μg/ml); MIC [5]: > 64 µg/mL; MIC ([7]; Neisseria gonorrhoeae, read-out: Minimum inhibitory concentration): > 64 µg/mL
COc1cc(C=Cc2ccc(O)cc2)cc(OC)c1 [Compound 14c, 3,5-dimethoxy-4′-hydroxy-stilbene]	64 µg/mL (≈ 250 µM)	16 µg/mL (≈ 62.4 µM)	> 64 µg/mL	32 to 64 µg/mL (≈ 125 to 250 µM)	> 64 µg/mL	> 64 µg/mL	8 µg/mL (≈ 31.2 µM)	8 µg/mL (≈ 31.2 µM)	32 µg/mL (≈ 125 µM)	> 64 µg/mL	16 µg/mL (≈ 62.4 µM)				29 ± 9 µM				comparable to that of resveratrol	GI50 ([12]; Homo sapiens, BXPC-3, BXPC-3): 12.6 µg/mL (≈ 49.2 µM); GI50 [20]: 3 µg/mL (≈ 11.7 µM); GI50 ([13]; SF-268, SF-268, read-out: CNS SF-268 GI50): 2.2 µg/mL (≈ 8.58 µM); GI50 ([14]; NCI-H460, NCI-H460, read-out: Lung-NSC NCI-H460 GI50): 2.8 µg/mL (≈ 10.9 µM); GI50 ([15]; KM201.2, read-out: Colon KM201.2 GI50): 11.9 µg/mL (≈ 46.4 µM); GI50 ([16]; Homo sapiens, DU-145, DU-145): 2.3 µg/mL (≈ 8.97 µM); Fold less active than 4a as inhibitor of tubulin assembly ([17]; relative to 4a): 16 fold; Antimicrobial activity, in words [22]: most active of the stilbenes and benzophenones tested
COc1ccc(C=Cc2cc(O)cc(O)c2)cc1 [Compound 14k, 3,5-dihydroxy-4′-methoxy-stilbene]	> 64 µg/mL	> 64 µg/mL	> 64 µg/mL	> 64 µg/mL	> 64 µg/mL	> 64 µg/mL	> 64 µg/mL	16 µg/mL (≈ 66 µM)	> 64 µg/mL	> 64 µg/mL	> 64 µg/mL	14.1 µg/mL	15.6 µg/mL	10.6 µg/mL					comparable to that of resveratrol	Breast MCF-7 GI50 ([20]; MCF-7): 12.7 µg/mL; GI50 [14, 24]: 6.4 µg/mL (≈ 26.4 µM); Colon KM201.2 GI50 ([15]; KM201.2): 17.7 µg/mL
COc1ccc(C(=O)c2cc(OC)cc(OC)c2)cc1 [Compound 16a, 3,4′,5-trimethoxybenzophenone]	> 64 µg/mL	> 64 µg/mL	> 64 µg/mL	> 64 µg/mL	> 64 µg/mL	> 64 µg/mL	> 64 µg/mL	32 µg/mL (≈ 118 µM)	> 64 µg/mL	> 64 µg/mL	> 64 µg/mL				2.6 ± 0.3 µM	47 ± 5%	least activity in both assays	69 ± 0.3%	superior in activity to resveratrol (1)	GI50 [20]: 21.7 µg/mL (≈ 79.7 µM); Inhibition of tubulin assembly, in words [17]: somewhat less potent than 2c; Fold less active (cytotoxicity) than compound 4a ([21]; relative to 4a): 10-100 fold; melting point: 90.3 to 91.6 °C
